Reference: patent US6770020B2 (priority 2001, dated 2004)

How the values were obtained:
[1] = rats; cited from earlier work
[2] = tested on: human glioblastoma cells (TB 10); experiment: Cell survival after thermal neutron irradiation of Gd-DTPA-exposed cultures; type: cell-based; conditions: for cell death after neutron irradiation: FIG. 5
Description: 5) For neutron bombardment, two series of cell cultures (each one in duplicate) from different passages were plated in plastic “NUNC”-brand flasks (Nalge Nunc International, Rochester, N.Y.) (NUNCLON, 25 cm^2culture area) at a density of 1×10^4 cells/cm^2 and exposed to no Gd-DTPA, 1 mg/ml, 5 mg/ml, or 10 mg/ml GdDTPA, for 72 hours, beginning 24 hours after plating. At the end of the exposure period, the growth media were removed and the flasks filled with Puck's modified saline, in which the cells remained for two hours before neutron bombardment. The cells were then irradiated for one hour under a thermal neutron flux of 3×10^8 n/cm^2s (nominal power 5 kW), at the ENEA's (Ente per le Nuove Tecnologie, L'Energia e L'Ambiente, Rome, Italy) TAPIRO fast Reactor. The fast neutron flux at the center of the irradiation chamber (20 cm^3 cube) was negligible, while the γ average dose was 3.2 Gy/h.^(20) Two hours later, the cells were detached from the plates, and cell survival was measured by cell counting and by the colorimetric MTT assay. The standard deviation of cell counting results on the four culture series was within 10%.
To verify if the 140 μg/ml of Gd retained by glioblastoma cells in the two- to four-hour washout time was still available as an efficient tumoricidal agent for NCT, the cultures were irradiated for one hour with thermal neutrons.
The data of FIG. 5 were obtained by direct living cell count and very similar results were obtained by the use of an MTT assay. As presented in FIG. 5, the control cultures (no Gd) were also affected by neutron irradiation, causing 20% of the cells to die. […] The serum-free environment insures that the DNA-repair cellular mechanism is slowed down, resulting (in principle) in decreased survival of the cells in which the Gd neutron capture reaction induced DNA damage. The 20% cell killing observed in cells not exposed to Gd provides an evaluation of the extent of this phenomenon.

[3] = tested on: human glioblastoma cells (TB 10); experiment: MEPHISTO x-ray spectromicroscopy, Gd in nucleus vs. cytoplasm; type: cell-based; conditions: 10 mg/ml
Description: 1) For spectromicroscopy experiments, two series of cell cultures from different passages were prepared, in which 5×10^4 cells/cm^2 were plated in 35 mm plastic Petri dishes, each containing 4 to 5 gold-plated stainless steel substrates (5 mm diameter). The Gd exposure concentration was 10 mg/ml and the exposure times were 0 to 72 hours. At the end of the exposure periods, all dishes were carefully washed three times with phosphate buffered saline (PBS) to remove all unbound Gd-DTPA, fixed in 4% paraformaldheyde in PBS for 20 minutes, and then washed in Milii Q water. The samples were then air-dried at room temperature and etched by exposure to UV light from a low-pressure mercury lamp in the presence of ozone. UV/O3 etching selectively removes carbon and nitrogen from the cells without architectural distortion, thereby preserving the micro localization of all other elements.^(18,19) In the present study, etching was employed to reveal the local (i.e., nuclear) concentration of Gd which would otherwise not be detectable with x-ray absorption spectroscopy. The cell cultures were etched for 116 hours, at a distance of 5 mm from the UV lamp.
Microchemical analysis of the etched cell cultures was performed with the custom-built MEPHISTO (Microscope á Emission de PHotoélectrons par Illumination Synchrotronique de Type Onduleur) X-ray photoelectron emission microscope (X-PEEM), which uses an electron optics system (SpectroMicroTech, Orlando, Fla., USA) to form a magnified image of the photoelectrons emitted by a specimen under soft x-ray illumination. The image magnification is continuously variable up to 8000x, and the optimum lateral resolution is 20 nm^(15). The image pixel intensity (corresponding to total photoelectron yield, per unit area, per unit time) is recorded as a function of photon energy. […] The position and line-shape of spectral features provide element identification and chemical state information. Spectra can be acquired simultaneously from regions selected on the real time image of the sample surface, and the probed depth is on the order of 100 Å. For this work, the MEPHISTO X-PEEM was mounted on the HERMON beamline of the University of Wisconsin-Madison Synchrotron Radiation Center (Stoughton, Wis.).
MEPHISTO micrographs acquired at a specific photon energy were processed in Adobe Photoshop 5.0 software for Macintosh to enhance the contrast and add a scale bar. […]
A comparison of ICP-MS and MEPHISTO data, determines the calibration of the MEPHISTO analysis, and therefore quantitative information on the Gd concentration at the microscopic level. […] These factors were derived from the matching of MEPHISTO data from whole cells to the ICP-MS cell-bulk data, so that they quantitatively overlap. […]

[4] = cited from earlier work
[5] = higher concentrations and prolonged exposure; cited from earlier work

O=C([O-])CN(CCN(CC(=O)[O-])CC(=O)O)CCN(CC(=O)[O-])CC(=O)O.[Gd+3] [Gd-DTPA, gadolinium diethylene triamine pentaacetic acid]
LD50 [1]: 20 mmol/kg
cell death after Gd exposure followed by thermal neutrons ([2]; 140 μg/ml Gd retained after two hours in physiological solution, 1 hour thermal neutrons): 70%
cell inactivation by Gd plus thermal neutrons vs. thermal neutrons alone ([2]; 70% vs. 20% killing): 3.5 times
cell death after neutron irradiation ([2]; exposure 1 mg/ml Gd-DTPA 72 hours): not sufficient to induce consistent cell death
cell death after neutron irradiation ([2]; exposure 10 and 5 mg/ml Gd-DTPA 72 hours): evident and reproducible cell death
Ratio: Gd nucleus/Gd cytoplasm ([3]; exposure time 6 hrs): 1.6
Ratio: Gd nucleus/Gd cytoplasm ([3]; exposure time 24 hrs): 2.1
Ratio: Gd nucleus/Gd cytoplasm ([3]; exposure time 48 hrs): 1.0
Ratio: Gd nucleus/Gd cytoplasm ([3]; exposure time 72 hrs): 1.3
dose eliminated renally ([4]; 6 hours post-injection in man, average): about 83%
dose found in the urine ([4]; 5 days post-injection in man): approximately 91%
dose dependence of pharmacokinetics ([4]; humans): independent of the dose
half life in the blood ([4]; in vivo): around 30 minutes
intravascular hemolysis [5]: weak, reversible intravascular hemolysis
